Measured values as given in patent publication US20140187556A1, “ANTI-AMYLOID COMPOUNDS AND METHODS” (Treventis Corporation, priority 2011, published 2014).

How the values were obtained:
[1] = molecular target: T1, Aβ40 (Homo sapiens, UniProt P05067); test: Thioflavin T (ThT) Aβ aggregation assay; format: biochemical; details: 20 μM Aβ40, 37 degrees C
T1 construct: pre-treated Aβ40 (40 μM in 20 mM Tris, pH 7.4)
Method: Aβ40 (1.0 mg) was pre-treated in a 1.5 mL microfuge tube with HFIP (1 mL) and sonicated for 20 min to disassemble any pre-formed Aβ aggregates. The HFIP was removed with a stream of argon and the Aβ dissolved in Tris base (5.8 mL, 20 mM, pH ˜10). The pH was adjusted to 7.4 with concentrated HCl (−10 μL) and the solution filtered using a syringe filter (0.2 μm) before being used.
The kinetic ThT assay for Aβ aggregation is similar to that of Chalifour et al (Chalifour et al, 2003, J. Biol. Chem. 278:34874-81). Briefly, pre-treated Aβ40 (40 μM in 20 mM Tris, pH 7.4), was diluted with an equal volume of 8 μM ThT in Tris (20 mM, pH 7.4, 300 mM NaCl). Aliquots of Aβ/ThT (200 μL) were added to wells of a black polystyrene 96-well plate, followed by 2 μL of a compound in DMSO (variable concentration), or DMSO alone (controls). Incubations were performed in triplicate and were taken to contain 20 μM Aβ, various concentration of compound in 20 mM Tris, pH 7.4, 150 mM NaCl, 1% DMSO. Plates were covered with clear polystyrene lids and incubated at 37 degrees C. in a Tecan Genios microplate reader. Fluorescence readings (λex=450 nm, λem=480 nm) were taken every 15 min., after first shaking at high intensity for 15 s and allowing to settle for 10 s before each reading. Active compounds attenuated the increase in fluorescence over time that occurred in controls.

[2] = Metabolic stability in mouse liver microsomes; format: in vitro ADME; details: 1 μM compound, 0.5 mg/mL microsomal protein, 1 mM NADPH
Method: This assay is used to determine the percent remaining and intrinsic clearance of a test compound incubated with pooled mouse liver microsomes in the presence of NADPH. Further details on this method may be found in Jeffrey P, et al., Utility of metabolic stability screening: comparison of in vitro and in vivo clearance. enobiotica. 2001 August-September; 31(8-9):591-8 and Lin J H, et al., Role of pharmacokinetics and metabolism in drug discovery and development. Pharmacol Rev. 1997; 49(4):403-49; each of which is hereby incorporated by reference. Test compound was formulated in 300 μL of DMSO at 10 mM and was diluted to 1 μM with final concentration of organic solvent <0.25% for the experiment. Pooled liver microsomes were prepared from male mice, with 1 mM NADPH. Test compound was incubated at 37 degrees Celsius in buffer containing 0.5 mg/mL microsomal protein; the reaction was initiated by adding cofactors and sampled at 0, 10, 20, 30, and 60 minutes. A positive control (5 μM testosterone) was incubated and initiated in parallel for quality control. Samples were analyzed using an LTQ-Orbitrap XL mass spectrometer; HRMS was used to determine the peak area response ratio (peak area corresponding to test compound or control divided by that of an analytical internal standard) without running a standard curve.
Results were reported for selected compounds in the table of Example 1, as % test compound remaining after 60 minutes. Compounds which have less than about 5% remaining are not considered to be metabolically stable in mouse liver microsomes, while compounds with more than about 5% remaining are considered to be metabolically stable in mouse liver microsomes.

[3] = Blood-brain barrier penetration potential using MDR1-MDCK cell monolayers; format: in vitro ADME; details: dog; for Papp A→B at 120 min, 5 µM: MDCK-MDR1, apical dosing, pH 7.4, read-out: Papp A-B × 10^−6 cm/s; for Papp B→A at 120 min, 5 µM: MDCK-MDR1, basolateral dosing, pH 7.4, read-out: Papp B-A × 10^−6 cm/s; for efflux ratio at 120 min, 5 µM: MDCK-MDR1, pH 7.4, read-out: Efflux ratio (Papp B-A)/(Papp A-B)
Source text: This assay is used to determine the blood-brain barrier (BBB) penetration potential of a test compound using MDR1-MDCK cell monolayers. Further details on this method may be found in Taub M E, et al., Functional assessment of multiple Pglycoprotein (P-gp) probe substrates: Influence of cell line and modulator concentration on P-gp activity. Drug Metab Dispos. 2005 November; 33(11): 1679-87 and Wang Q, et al., Evaluation of the MDR-MDCK cell line as a permeability screen for the blood-brain barrier. Int J. Pharm. 2005 Jan. 20; 288(2):349-59; each of which is hereby incorporated by reference. Test compound was formulated in 300 μL of DMSO at 10 mM and diluted to 5 μM in HBSSg with maximum DMSO concentration not greater than 1%. Confluent monolayers of MDR1-MDCK cells, 7 to 11 days old, were used. A receiver well, having apical and basolateral sides at pH 7.4, was used with 1% BSA in modified Hanks buffer (HBSSg). Two monolayers were dosed with test compound in each direction (N=2). Apical side dosing was used for A-B assessment and basolateral side was used for B-A assessment; taken together, this information provides a bidirectional permeability potential. Apical and basolateral sides were sampled at 120 minutes and concentrations of test compound were determined using an LC-MS/MS method with a minimum 4 point calibration curve. Apparent permeability (Papp) in both directions (A-B and B-A) was calculated, as was the efflux ratio (Papp B-A)/(Papp A-B).

T1 sequence (P05067 672-711 limits assumed): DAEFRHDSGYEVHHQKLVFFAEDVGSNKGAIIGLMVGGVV

SMILES	IC50 [1]	Stability in mouse liver microsomes (% test compound remaining after 60 min) [2]	Papp A→B at 120 min, 5 µM [3]	Papp B→A at 120 min, 5 µM [3]	efflux ratio at 120 min, 5 µM [3]
CN1CCN(C(=O)c2cccc(-c3ccc([N+](=O)[O-])c(NCc4ccccc4)c3)c2)CC1 [TRV 1115, (3′-(benzyl amino)-4′-nitrobiphenyl-3-yl)(4-methylpiperazin-1-yl)methanone]	2.67 ± 0.1 µM	<1.0%	–	–	–
NS(=O)(=O)c1cccc(-c2ccc([N+](=O)[O-])c(NCc3ccccc3)c2)c1 [TRV 1122, 3′-(benzylamino)-4′-nitro-[1,1′-biphenyl]-3-sulfonamide]	14.1 ± 3.07 µM	1.5%	27.5 ×10⁻⁶ cm/s	52.5 ×10⁻⁶ cm/s	1.9
CC(C)N(C(=O)c1cccc(-c2ccc([N+](=O)[O-])c(NCc3ccccc3)c2)c1)C(C)C [TRV 1112, 3′-(benzylamino)-N,N-diisopropyl-4′-nitrobiphenyl-3-carboxamide]	1.41 ± 1.11 µM	<1.0%	–	–	–
O=[N+]([O-])c1ccc(-c2ccc(-c3nn[nH]n3)cc2)cc1NCc1ccccc1 [TRV 1126, N-benzyl-4-nitro-4′-(2H-tetrazol-5-yl)-[1,1′-biphenyl]-3-amine]	1.1 ± 0.33 µM	41%	34.1 ×10⁻⁶ cm/s	47.8 ×10⁻⁶ cm/s	1.4
NS(=O)(=O)c1ccccc1-c1ccc([N+](=O)[O-])c(NCc2ccccc2)c1 [TRV 1121, 3′-(benzylamino)-4′-nitro-[1,1′-biphenyl]-2-sulfonamide]	24.6 ± 6.83 µM	<1.0%	–	–	–
O=C(c1cccc(-c2ccc([N+](=O)[O-])c(NCc3ccccc3)c2)c1)N1CCCC1 [TRV 1117, (3′-(benzylamino)-4′-nitrobiphenyl-3-yl)(pyrrolidin-1-yl)methanone]	2.94 ± 1.64 µM	<1.0%	–	–	–
O=C(c1cccc(-c2ccc([N+](=O)[O-])c(NCc3ccccc3)c2)c1)N1CCCCC1 [TRV 1111, (3′-(benzyl amino)-4′-nitrobiphenyl-3-yl)(piperidin-1-yl)methanone]	0.33 ± 0.44 µM	<1.0%	–	–	–
CN(C)C(=O)c1cccc(-c2ccc([N+](=O)[O-])c(NCc3ccccc3)c2)c1 [TRV 1102, 3′-(benzylamino)-N,N-dimethyl-4′-nitrobiphenyl-3-carboxamide]	4.11 ± 1.2 µM	<1.0%	–	–	–
O=C(c1ccccc1)N1CCN(c2ccc([N+](=O)[O-])c(N3CCCC3)c2)CC1 [TRV 1141, (4-(4-nitro-3-(pyrrolidin-1-yl)phenyl)piperazin-1-yl)(phenyl)methanone]	~10 µM	<1.0%	–	–	–
CCN(CC)C(=O)c1cccc(-c2ccc([N+](=O)[O-])c(NCc3ccccc3)c2)c1 [TRV 1110, 3′-(benzylamino)-N,N-diethyl-4′-nitrobiphenyl-3-carboxamide]	0.7 ± 0.9 µM	<1.0%	–	–	–
CN(C)C(=O)C1CCN(c2ccc([N+](=O)[O-])c(NCc3ccccc3)c2)CC1 [TRV 1134, 1-(3-(benzylamino)-4-nitrophenyl)-N,N-dimethylpiperidine-4-carboxamide]	10.7 ± 0.54 µM	–	–	–	–
O=C(c1ccccc1)N1CCN(c2ccc([N+](=O)[O-])c(N3CCC(N4CCCC4)CC3)c2)CC1 [TRV 1139, (4-(4-nitro-3-(4-(pyrrolidin-1-yl)piperidin-1-yl)phenyl)piperazin-1-yl)(phenyl)methanone]	~10 µM	–	–	–	–
CCN(CC)c1cc(N2CCN(C(=O)c3ccccc3)CC2)ccc1[N+](=O)[O-] [TRV 1135, (4-(3-(diethylamino)-4-nitrophenyl)piperazin-1-yl)(phenyl)methanone]	12.4 ± 0.62 µM	–	–	–	–
CC(O)c1cccc(-c2ccc([N+](=O)[O-])c(NCc3ccccc3)c2)c1 (centres unmarked) [TRV 1129, 1-(3′-(benzylamino)-4′-nitrobiphenyl-3-yl)ethanol]	6.49 ± 0.21 µM	<1.0%	–	–	–
O=C(c1cccc(-c2ccc([N+](=O)[O-])c(NCc3ccccc3)c2)c1)N1CCOCC1 [TRV 1113, (3′-(benzyl amino)-4′-nitrobiphenyl-3-yl)(morpholino)methanone]	> 50 µM	–	–	–	–
CC1CN(c2ccc([N+](=O)[O-])c(Nc3ccccc3)c2)CC(C)N1C(=O)c1ccccc1 (centres unmarked) [TRV 1098, (2,6-dimethyl-4-(4-nitro-3-(phenyl amino)phenyl)piperazin-1-yl)(phenyl)methanone]	3.99 ± 3.77 µM	–	–	–	–

Now from value to molecule:

IC50 [1]	Stability in mouse liver microsomes (% test compound remaining after 60 min) [2]	Papp A→B at 120 min, 5 µM [3]	Papp B→A at 120 min, 5 µM [3]	efflux ratio at 120 min, 5 µM [3]	SMILES
3.54 ± 0.46 µM	<1.0%	–	–	–	O=[N+]([O-])c1ccc(-c2cccc(CO)c2)cc1NCc1ccccc1 [TRV 1147]
~10 µM	1.7%	–	–	–	O=C(c1ccccc1)N1CCN(c2ccc([N+](=O)[O-])c(NC3CC3)c2)CC1 [TRV 1142, (4-(3-(cyclopropylamino)-4-nitrophenyl)piperazin-1-yl)(phenyl)methanone]
> 50 µM	–	–	–	–	CC(C)Nc1cc(N2CCN(C(=O)c3ccccc3)CC2)cc(C(F)(F)F)c1 [TRV 1169, (4-(3-(isopropylamino)-5-(trifluoromethyl)phenyl)piperazin-1-yl)(phenyl)methanone]
> 10 µM	–	–	–	–	O=C(c1ccccc1)N1CCN(c2ccc([N+](=O)[O-])c(NC3CCC3)c2)CC1 [TRV 1149, (4-(3-(cyclobutylamino)-4-nitrophenyl)piperazin-1-yl)(phenyl)methanone]
> 50 µM	–	–	–	–	CC(C)Nc1cc(N2CCN(C(=O)c3ccccc3)CC2)cc(F)c1C(F)(F)F [TRV 1176, (4-(3-fluoro-5-(isopropylamino)-4-(trifluoromethyl)phenyl)piperazin-1-yl)(phenyl)methanone]
> 50 µM	–	–	–	–	O=C(c1ccccc1)N1CCN(c2ccc(F)c(NCc3ccccc3)c2)CC1 [TRV 1159, (4-(3-(benzylamino)-4-fluorophenyl)piperazin-1-yl)(phenyl)methanone]
> 50 µM	–	–	–	–	CC(C)Nc1cc(N2CCN(C(=O)c3ccccc3)CC2)ccc1C#N [TRV 1168, 4-(4-benzoylpiperazin-1-yl)-2-(isopropylamino)benzonitrile]
> 50 µM	–	–	–	–	O=C(c1ccccc1)N1CCN(c2ccc(-n3cnnn3)c(N3CCCC3)c2)CC1 [TRV 1164, phenyl(4-(3-(pyrrolidin-1-yl)-4-(1H-tetrazol-1-yl)phenyl)piperazin-1-yl)methanone]
> 50 µM	–	–	–	–	CC(C)Nc1cc(N2CCN(C(=O)c3ccccc3)CC2)ccc1F [TRV 1160, (4-(4-fluoro-3-(isopropylamino)phenyl)piperazin-1-yl)(phenyl)methanone]
